Read-outs that look alike come from different tables or passages of the source.
Assays:
F1F0-ATPase = biological target: T1, F1F0-ATPase (Bos taurus, UniProt P13621); assay: Inhibition of F1F0-ATPase activity in synthesizing ATP; type: biochemical; conditions: inhibition of ATP synthesis by F1F0-ATPase; read-out: ATP Syn IC50
T1 construct: from tissue

Ramos cells = assay: Cytotoxicity in Ramos cells; type: cell-based; conditions: cytotoxicity in Ramos cells, read-out: Ramos Cell EC50

SMILES: Cc1cc(C(=O)/N=C(\Nc2cc(-c3ccc(F)cc3)n[nH]2)NC(C)(C)C)ccn1 [Compound A-341]
- IC50 (F1F0-ATPase): < 10 µM
- EC50 (Ramos cells): < 10 µM

SMILES: COC(=O)c1cccc(C(=O)/N=C(\Nc2cc(-c3ccc(F)cc3)n[nH]2)NC(C)(C)C)c1 [Compound A-342]
- IC50 (F1F0-ATPase): < 10 µM
- EC50 (Ramos cells): < 10 µM

SMILES: N#CC1(N/C(=N/C(=O)c2ccc(Cl)c(F)c2)Nc2cc(-c3cc(F)cc(F)c3)n[nH]2)CC1 [Compound A-343]
- IC50 (F1F0-ATPase): < 10 µM
- EC50 (Ramos cells; Homo sapiens): > 10 µM

SMILES: CC(C)OCCCNC(=NC(=O)c1ccc(Cl)c(F)c1)Nc1cc(-c2cc(F)cc(F)c2)n[nH]1 [Compound A-344]
- IC50 (F1F0-ATPase): < 10 µM
- EC50 (Ramos cells; Homo sapiens): < 10 µM

SMILES: CC(C)(C)c1cc(NC(=NC(=O)c2ccc(Cl)c(F)c2)Nc2cc(-c3cc(F)cc(F)c3)n[nH]2)no1 [Compound A-345]
- IC50 (F1F0-ATPase): > 10 µM
- EC50 (Ramos cells; Homo sapiens): > 10 µM

SMILES: CCC(C)CN/C(=N/C(=O)c1ccc(Cl)c(F)c1)Nc1cc(-c2cc(F)cc(F)c2)n[nH]1 (centres unmarked) [Compound A-346]
- IC50 (F1F0-ATPase): < 10 µM
- EC50 (Ramos cells): < 10 µM

SMILES: O=C(/N=C(\Nc1cc(-c2cc(F)cc(F)c2)n[nH]1)NC1CCC1)c1ccc(Cl)c(F)c1 [Compound A-347]
- IC50 (F1F0-ATPase): < 10 µM
- EC50 (Ramos cells): < 10 µM

SMILES: CCCC(C)NC(=NC(=O)c1ccc(Cl)c(F)c1)Nc1cc(-c2cc(F)cc(F)c2)n[nH]1 (centres unmarked) [Compound A-348]
- IC50 (F1F0-ATPase): < 10 µM
- EC50 (Ramos cells; Homo sapiens): < 10 µM

SMILES: CC(C)CCNC(=NC(=O)c1ccc(Cl)c(F)c1)Nc1cc(-c2cc(F)cc(F)c2)n[nH]1 [Compound A-349]
- IC50 (F1F0-ATPase): < 10 µM
- EC50 (Ramos cells; Homo sapiens): < 10 µM

SMILES: CCC(CC)NC(=NC(=O)c1ccc(Cl)c(F)c1)Nc1cc(-c2cc(F)cc(F)c2)n[nH]1 [Compound A-350]
- IC50 (F1F0-ATPase): < 10 µM
- EC50 (Ramos cells; Homo sapiens): < 10 µM

SMILES: CC(C)C(C)NC(=NC(=O)c1ccc(Cl)c(F)c1)Nc1cc(-c2cc(F)cc(F)c2)n[nH]1 (centres unmarked) [Compound A-351]
- IC50 (F1F0-ATPase): < 10 µM
- EC50 (Ramos cells; Homo sapiens): < 10 µM

SMILES: CC(C)CN/C(=N/C(=O)c1ccc(Cl)c(F)c1)Nc1cc(-c2cc(F)cc(F)c2)n[nH]1 [Compound A-352]
- IC50 (F1F0-ATPase): < 10 µM
- EC50 (Ramos cells): < 10 µM

SMILES: CC(C)N/C(=N/C(=O)c1ccc(Cl)c(F)c1)Nc1cc(-c2cc(F)cc(F)c2)n[nH]1 [Compound A-359]
- IC50 (F1F0-ATPase): < 10 µM
- EC50 (Ramos cells): < 10 µM

SMILES: CCCCN/C(=N/C(=O)c1ccc(Cl)c(F)c1)Nc1cc(-c2cc(F)cc(F)c2)n[nH]1 [Compound A-360]
- IC50 (F1F0-ATPase): < 10 µM
- EC50 (Ramos cells): < 10 µM

SMILES: O=C(/N=C(/NCC1CC1)Nc1cc(-c2cc(F)cc(F)c2)n[nH]1)c1ccc(Cl)c(F)c1 [Compound A-361]
- IC50 (F1F0-ATPase): < 10 µM
- EC50 (Ramos cells): < 10 µM

SMILES: CCC(C)NC(=NC(=O)c1ccc(Cl)c(F)c1)Nc1cc(-c2cc(F)cc(F)c2)n[nH]1 (centres unmarked) [Compound A-362]
- IC50 (F1F0-ATPase): < 10 µM
- EC50 (Ramos cells; Homo sapiens): < 10 µM

SMILES: COCC(C)NC(=NC(=O)c1ccc(F)c(F)c1)Nc1cc(-c2cc(F)cc(F)c2)n[nH]1 (centres unmarked) [Compound A-363]
- IC50 (F1F0-ATPase): < 10 µM
- EC50 (Ramos cells; Homo sapiens): < 10 µM

SMILES: CC(C)CNC(=NC(=O)c1ccc(F)c(F)c1)Nc1cc(-c2cc(F)cc(F)c2)n[nH]1 [Compound A-364]
- IC50 (F1F0-ATPase): < 10 µM
- EC50 (Ramos cells; Homo sapiens): < 10 µM

SMILES: O=C(N=C(Nc1cc(-c2cc(F)cc(F)c2)n[nH]1)NC1CCCC1)c1ccc(F)c(F)c1 [Compound A-365]
- IC50 (F1F0-ATPase): < 10 µM
- EC50 (Ramos cells; Homo sapiens): < 10 µM

SMILES: CC(C)N/C(=N/C(=O)c1ccc(F)c(F)c1)Nc1cc(-c2cc(F)cc(F)c2)n[nH]1 [Compound A-366]
- IC50 (F1F0-ATPase): < 10 µM
- EC50 (Ramos cells): < 10 µM

SMILES: COCC(C)NC(=NC(=O)c1cccc(F)c1)Nc1cc(-c2cc(F)cc(F)c2)n[nH]1 (centres unmarked) [Compound A-367]
- IC50 (F1F0-ATPase): < 10 µM
- EC50 (Ramos cells): < 10 µM

SMILES: CC(C)CN/C(=N/C(=O)c1cccc(F)c1)Nc1cc(-c2cc(F)cc(F)c2)n[nH]1 [Compound A-368]
- IC50 (F1F0-ATPase): < 10 µM
- EC50 (Ramos cells): < 10 µM

SMILES: O=C(N=C(Nc1cc(-c2cc(F)cc(F)c2)n[nH]1)NC1CCCC1)c1cccc(F)c1 [Compound A-369]
- IC50 (F1F0-ATPase): < 10 µM
- EC50 (Ramos cells; Homo sapiens): < 10 µM

SMILES: CC(C)NC(=NC(=O)c1cccc(F)c1)Nc1cc(-c2cc(F)cc(F)c2)n[nH]1 [Compound A-370]
- IC50 (F1F0-ATPase): < 10 µM
- EC50 (Ramos cells; Homo sapiens): < 10 µM

SMILES: COCC(C)NC(=NC(=O)c1ccc(OC)cc1F)Nc1cc(-c2ccc(F)cc2)n[nH]1 (centres unmarked) [Compound A-371]
- IC50 (F1F0-ATPase): > 10 µM
- EC50 (Ramos cells): > 10 µM

SMILES: COc1ccc(C(=O)/N=C(/NCC(C)C)Nc2cc(-c3ccc(F)cc3)n[nH]2)c(F)c1 [Compound A-372]
- IC50 (F1F0-ATPase): < 10 µM
- EC50 (Ramos cells): > 10 µM

SMILES: COc1ccc(C(=O)/N=C(\Nc2cc(-c3ccc(F)cc3)n[nH]2)NC(C)(C)C)c(F)c1 [Compound A-373]
- IC50 (F1F0-ATPase): < 10 µM
- EC50 (Ramos cells): < 10 µM

SMILES: COc1ccc(C(=O)/N=C(\Nc2cc(-c3ccc(F)cc3)n[nH]2)NC(C)C)c(F)c1 [Compound A-374]
- IC50 (F1F0-ATPase): < 10 µM
- EC50 (Ramos cells): < 10 µM

SMILES: CC(C)(C)N/C(=N/C(=O)c1ccc(S(N)(=O)=O)cc1)Nc1cc(-c2ccc(F)cc2)n[nH]1 [Compound A-375]
- IC50 (F1F0-ATPase): < 10 µM
- EC50 (Ramos cells): < 10 µM

SMILES: COCC(C)NC(=NC(=O)c1ccc(F)c(F)c1)Nc1cc(-c2ccc(Cl)cc2)n[nH]1 (centres unmarked) [Compound A-376]
- IC50 (F1F0-ATPase): < 10 µM
- EC50 (Ramos cells; Homo sapiens): < 10 µM

SMILES: CC(C)CN/C(=N/C(=O)c1ccc(F)c(F)c1)Nc1cc(-c2ccc(Cl)cc2)n[nH]1 [Compound A-377]
- IC50 (F1F0-ATPase): < 10 µM
- EC50 (Ramos cells): < 10 µM

SMILES: O=C(N=C(Nc1cc(-c2ccc(Cl)cc2)n[nH]1)NC1CCCC1)c1ccc(F)c(F)c1 [Compound A-378]
- IC50 (F1F0-ATPase): < 10 µM
- EC50 (Ramos cells; Homo sapiens): < 10 µM

SMILES: CC(C)NC(=NC(=O)c1ccc(F)c(F)c1)Nc1cc(-c2ccc(Cl)cc2)n[nH]1 [Compound A-379]
- IC50 (F1F0-ATPase): < 10 µM
- EC50 (Ramos cells; Homo sapiens): < 10 µM

SMILES: COC[C@H](C)N/C(=N/C(=O)c1ccc(Cl)c(F)c1)Nc1cc(-c2ccc(Cl)cc2)n[nH]1 [Compound A-380]
- IC50 (F1F0-ATPase): < 10 µM
- EC50 (Ramos cells): < 10 µM

SMILES: CC(C)CNC(=NC(=O)c1ccc(Cl)c(F)c1)Nc1cc(-c2ccc(Cl)cc2)n[nH]1 [Compound A-381]
- IC50 (F1F0-ATPase): < 10 µM
- EC50 (Ramos cells; Homo sapiens): < 10 µM

SMILES: O=C(N=C(Nc1cc(-c2ccc(Cl)cc2)n[nH]1)NC1CCCC1)c1ccc(Cl)c(F)c1 [Compound A-382]
- IC50 (F1F0-ATPase): < 10 µM
- EC50 (Ramos cells; Homo sapiens): < 10 µM

SMILES: CC(C)NC(=NC(=O)c1ccc(Cl)c(F)c1)Nc1cc(-c2ccc(Cl)cc2)n[nH]1 [Compound A-383]
- IC50 (F1F0-ATPase): < 10 µM
- EC50 (Ramos cells; Homo sapiens): < 10 µM

SMILES: COCC(C)NC(=NC(=O)c1cccc(F)c1)Nc1cc(-c2ccc(Cl)cc2)n[nH]1 (centres unmarked) [Compound A-384]
- IC50 (F1F0-ATPase): < 10 µM
- EC50 (Ramos cells): < 10 µM

SMILES: O=C(/N=C(\Nc1cc(-c2ccc(Cl)cc2)n[nH]1)NC1CCCC1)c1cccc(F)c1 [Compound A-385]
- IC50 (F1F0-ATPase): < 10 µM
- EC50 (Ramos cells): < 10 µM

SMILES: CC(C)N/C(=N/C(=O)c1cccc(F)c1)Nc1cc(-c2ccc(Cl)cc2)n[nH]1 [Compound A-386]
- IC50 (F1F0-ATPase): < 10 µM
- EC50 (Ramos cells): < 10 µM

SMILES: COc1cccc(F)c1C(=O)/N=C(\Nc1cc(-c2ccc(F)cc2)n[nH]1)NC(C)(C)C [Compound A-387]
- IC50 (F1F0-ATPase): < 10 µM
- EC50 (Ramos cells): > 10 µM

SMILES: O=C(/N=C(\Nc1cc(-c2ccc(F)cc2)n[nH]1)NC1CCCC1)c1cccc(F)c1 [Compound A-388]
- IC50 (F1F0-ATPase): < 10 µM
- EC50 (Ramos cells): < 10 µM

SMILES: COCC(C)NC(=NC(=O)c1cccc(F)c1)Nc1cc(-c2ccc(F)cc2)n[nH]1 (centres unmarked) [Compound A-389]
- IC50 (F1F0-ATPase): < 10 µM
- EC50 (Ramos cells): < 10 µM

SMILES: CC(C)N/C(=N/C(=O)c1cccc(F)c1)Nc1cc(-c2ccc(F)cc2)n[nH]1 [Compound A-390]
- IC50 (F1F0-ATPase): < 10 µM
- EC50 (Ramos cells): > 10 µM

SMILES: C[C@@H](CO)N/C(=N/C(=O)c1ccc(F)cc1)Nc1cc(-c2ccc(F)cc2)n[nH]1 [Compound A-391]
- IC50 (F1F0-ATPase): > 10 µM
- EC50 (Ramos cells): > 10 µM

SMILES: COc1cccc(CN/C(=N/C(=O)c2ccc(F)c(C)c2)Nc2cc(-c3ccc(F)cc3)n[nH]2)c1 [Compound A-392]
- IC50 (F1F0-ATPase): < 10 µM
- EC50 (Ramos cells): < 10 µM

SMILES: Cc1cc(C(=O)/N=C(/NCc2ccccc2C)Nc2cc(-c3ccc(F)cc3)[nH]n2)ccc1F [Compound A-393]
- IC50 (F1F0-ATPase): < 10 µM
- EC50 (Ramos cells): < 10 µM

SMILES: COc1cccc(CN/C(=N/C(=O)c2cccc(OC)c2)Nc2cc(-c3ccc(F)cc3)[nH]n2)c1 [Compound A-394]
- IC50 (F1F0-ATPase): < 10 µM
- EC50 (Ramos cells): < 10 µM

SMILES: COc1cccc(C(=O)/N=C(/NCc2ccccc2C)Nc2cc(-c3ccc(F)cc3)[nH]n2)c1 [Compound A-395]
- IC50 (F1F0-ATPase): < 10 µM
- EC50 (Ramos cells): < 10 µM

SMILES: COc1cccc(CN/C(=N/C(=O)c2cc(F)c(F)c(F)c2)Nc2cc(-c3ccc(F)cc3)[nH]n2)c1 [Compound A-396]
- IC50 (F1F0-ATPase): < 10 µM
- EC50 (Ramos cells): < 10 µM

SMILES: Cc1ccccc1CN/C(=N/C(=O)c1cc(F)c(F)c(F)c1)Nc1cc(-c2ccc(F)cc2)[nH]n1 [Compound A-397]
- IC50 (F1F0-ATPase): < 10 µM
- EC50 (Ramos cells): < 10 µM

SMILES: COc1cccc(CN/C(=N/C(=O)c2cccc(F)c2)Nc2cc(-c3ccc(F)cc3)[nH]n2)c1 [Compound A-398]
- IC50 (F1F0-ATPase): < 10 µM
- EC50 (Ramos cells): < 10 µM
